Data set [1] addresses T1, PIKfyve (Homo sapiens, UniProt Q9Y2I7).
T1 construct: purchased Nanosyn, Santa Clara, CA, USA (contract assay service)
Kind of data set: biochemical PIKfyve mobility shift assay (Nanosyn).

In data set [2] the test system is SARS-CoV-2. The data set can be described thus: microbe, parasite or virus in culture. The class given is cell-based, severe acute respiratory syndrome coronavirus 2. The conditions noted are these: for EC50: Severe acute respiratory syndrome coronavirus 2, VeroE6/TMPRSS2, 24 h, read-out: SARS-CoV2 EC50.
The nature of data set [3]: cell viability (AlamarBlue) in SARS-CoV-2-infected Vero E6/TMPRSS2 cells. The data set is classed as cell-based. Particulars: African green monkey, Vero E6/TMPRSS2 cells infected with SARS-CoV-2, half-maximal cytotoxic concentration, read-out: SARS-CoV2 CC50.
The subject of data set [4] is U-87 MG cells. The conditions noted are these: half-maximal cytotoxic concentration.
Data set [5] deals with VEEV (TC-83). Kind of data set: microbe, parasite or virus in culture. The data set is classed as cell-based. The conditions noted are these: Venezuelan equine encephalitis virus, U-87 MG, 18 h, read-out: VEEV (TC-83) EC50.
The target in data set [6] is T2, PIP4K2C (Homo sapiens, UniProt Q8TBX8).
T2 sequence (Q8TBX8 1-421): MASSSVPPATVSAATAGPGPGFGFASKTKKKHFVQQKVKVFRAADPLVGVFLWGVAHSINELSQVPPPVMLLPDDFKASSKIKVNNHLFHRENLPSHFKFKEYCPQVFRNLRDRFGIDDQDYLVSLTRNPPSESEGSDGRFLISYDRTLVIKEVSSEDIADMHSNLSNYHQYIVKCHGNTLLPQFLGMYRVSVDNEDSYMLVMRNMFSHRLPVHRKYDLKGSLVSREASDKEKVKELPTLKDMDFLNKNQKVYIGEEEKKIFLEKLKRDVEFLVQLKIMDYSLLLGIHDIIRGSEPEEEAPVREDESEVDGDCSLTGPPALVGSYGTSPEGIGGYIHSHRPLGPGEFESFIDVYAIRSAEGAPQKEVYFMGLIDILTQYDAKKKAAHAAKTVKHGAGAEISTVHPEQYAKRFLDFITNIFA
The data set can be described thus: PIP4K2C binding assay (DiscoverX/Kinome platform).

Some results are limits rather than exact numbers.

T1 sequence (Q9Y2I7 whole entry): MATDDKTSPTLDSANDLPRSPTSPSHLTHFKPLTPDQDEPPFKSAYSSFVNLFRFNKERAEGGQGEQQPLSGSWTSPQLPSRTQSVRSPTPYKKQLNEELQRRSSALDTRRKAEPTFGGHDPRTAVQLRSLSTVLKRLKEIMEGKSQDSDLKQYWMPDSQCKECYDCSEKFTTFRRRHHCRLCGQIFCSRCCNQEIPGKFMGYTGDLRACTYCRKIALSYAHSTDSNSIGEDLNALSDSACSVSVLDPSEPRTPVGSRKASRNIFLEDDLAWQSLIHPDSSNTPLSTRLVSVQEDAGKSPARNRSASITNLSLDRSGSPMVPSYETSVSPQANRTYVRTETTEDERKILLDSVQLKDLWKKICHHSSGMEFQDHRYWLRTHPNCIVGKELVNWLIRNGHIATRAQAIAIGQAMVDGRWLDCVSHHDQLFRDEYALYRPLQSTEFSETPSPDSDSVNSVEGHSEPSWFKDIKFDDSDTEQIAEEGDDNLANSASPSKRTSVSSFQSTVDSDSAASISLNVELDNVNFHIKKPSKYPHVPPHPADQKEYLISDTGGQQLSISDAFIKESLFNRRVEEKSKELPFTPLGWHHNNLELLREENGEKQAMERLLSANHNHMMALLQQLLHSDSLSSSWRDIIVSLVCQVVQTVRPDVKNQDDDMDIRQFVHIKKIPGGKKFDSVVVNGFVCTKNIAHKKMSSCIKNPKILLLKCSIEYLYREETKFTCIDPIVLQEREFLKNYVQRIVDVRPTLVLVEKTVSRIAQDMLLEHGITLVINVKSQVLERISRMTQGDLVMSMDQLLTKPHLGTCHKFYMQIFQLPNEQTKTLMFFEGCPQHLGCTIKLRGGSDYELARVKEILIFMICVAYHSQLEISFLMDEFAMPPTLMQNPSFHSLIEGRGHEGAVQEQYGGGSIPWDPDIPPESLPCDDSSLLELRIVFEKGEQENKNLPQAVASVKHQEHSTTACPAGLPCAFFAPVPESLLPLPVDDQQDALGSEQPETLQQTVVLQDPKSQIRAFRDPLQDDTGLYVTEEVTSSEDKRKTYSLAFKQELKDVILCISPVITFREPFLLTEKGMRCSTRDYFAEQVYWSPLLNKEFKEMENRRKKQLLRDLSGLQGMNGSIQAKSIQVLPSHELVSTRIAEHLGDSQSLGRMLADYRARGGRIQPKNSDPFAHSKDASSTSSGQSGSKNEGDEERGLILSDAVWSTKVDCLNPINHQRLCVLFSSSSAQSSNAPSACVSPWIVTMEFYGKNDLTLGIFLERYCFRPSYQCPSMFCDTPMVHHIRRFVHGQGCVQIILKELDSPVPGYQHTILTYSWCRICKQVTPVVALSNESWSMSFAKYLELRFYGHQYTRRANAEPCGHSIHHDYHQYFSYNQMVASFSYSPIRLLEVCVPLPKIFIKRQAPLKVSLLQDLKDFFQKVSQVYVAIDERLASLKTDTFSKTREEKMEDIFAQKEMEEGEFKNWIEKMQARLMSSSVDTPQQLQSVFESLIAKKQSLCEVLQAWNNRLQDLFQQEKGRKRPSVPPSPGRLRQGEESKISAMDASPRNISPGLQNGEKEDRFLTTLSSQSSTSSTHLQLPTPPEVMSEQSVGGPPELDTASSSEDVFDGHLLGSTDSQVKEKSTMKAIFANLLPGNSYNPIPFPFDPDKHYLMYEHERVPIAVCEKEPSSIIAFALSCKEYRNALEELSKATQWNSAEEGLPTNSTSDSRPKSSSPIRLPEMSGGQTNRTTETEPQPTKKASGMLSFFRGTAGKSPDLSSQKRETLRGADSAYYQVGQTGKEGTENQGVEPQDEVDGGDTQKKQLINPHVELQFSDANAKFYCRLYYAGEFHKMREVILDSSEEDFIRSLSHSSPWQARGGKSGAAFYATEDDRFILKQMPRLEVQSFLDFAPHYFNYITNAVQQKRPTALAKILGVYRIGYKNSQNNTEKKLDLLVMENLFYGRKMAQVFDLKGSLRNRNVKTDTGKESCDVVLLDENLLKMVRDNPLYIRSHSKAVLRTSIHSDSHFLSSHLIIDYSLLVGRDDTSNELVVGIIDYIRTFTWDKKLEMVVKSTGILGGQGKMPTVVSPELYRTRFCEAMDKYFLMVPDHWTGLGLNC

With `C(#Cc1snc2cc(-c3ccc(OCCN4CCCC4)cc3)cnc12)c1cccnc1` [Compound 5b, 3-(Pyridin-3-ylethynyl)-6-(4-(2-(pyrrolidin-1-yl)ethoxy)phenyl)isothiazolo[4,3-b]pyridine], in data set [1] (Tables 1-4 and text), the IC50 is 5.5 nM. The EC50 in data set [2] stood at 1420 ± 140 nM; in data set [5], 710 ± 90 nM. Also, in data set [3], the CC50 was above 20000 nM. Besides, the “VEEV (TC-83) CC50” value in data set [4] was above 10000 nM.

Take `COC(=O)c1cncc(C#Cc2snc3cc(-c4ccc(OC)c(OC)c4)cnc23)c1` [Compound 7m, Methyl 5-((6-(3,4-dimethoxyphenyl)isothiazolo[4,3-b]pyridin-3-yl)ethynyl)nicotinate]: the IC50 in data set [1] (Tables 1-4 and text) worked out at 120 nM. The figures for the EC50 in data set [2] and in data set [5] were 2560 ± 860 nM and 1160 ± 1 nM, respectively. Moreover, the CC50 in data set [3] was above 20000 nM. In data set [4], the “VEEV (TC-83) CC50” value was above 10000 nM.

Consider `COc1cccc(-c2cnc3c(C#Cc4cccnc4)snc3c2)c1` [Compound 3a, 6-(3-Methoxyphenyl)-3-(pyridin-3-ylethynyl)isothiazolo[4,3-b]pyridine], for which the IC50 in data set [1] (Table 5 column) stood at 6.8 nM; in data set [1] (Tables 1-4 and text), 6.8 nM. In data set [3], the CC50 was below 10000 nM. This molecule also yielded a Kd in data set [6] of 190 nM. Besides, in data set [4], the “VEEV (TC-83) CC50” value was above 10000 nM. The EC50 in data set [5] is 6880 ± 330 nM.

Regarding `COc1ccncc1C#Cc1snc2cc(-c3ccc(OC)c(OC)c3)cnc12` [Compound 7o, 6-(3,4-Dimethoxyphenyl)-3-((4-methoxypyridin-3-yl)ethynyl)isothiazolo[4,3-b]pyridine], the IC50 in data set [1] (Table 5 column) was 19 nM; in data set [1] (Tables 1-4 and text) it was 19 nM. Moreover, the 50% cytotoxic concentration (CC50) in data set [3] is below 10000 nM. Binding in data set [6] was put at a Kd of 230 nM. In addition, the “VEEV (TC-83) CC50” value in data set [4] was determined as 7690 ± 1 nM. The EC50 in data set [5] was found to be 920 ± 80 nM.

Regarding `COc1ccc(-c2cnc3c(C#Cc4ccccc4F)snc3c2)cc1OC` [Compound 7e, 6-(3,4-Dimethoxyphenyl)-3-((2-fluorophenyl)ethynyl)isothiazolo[4,3-b]pyridine], the IC50 was determined as 62 nM in data set [1] (Table 5 column); 62 nM in data set [1] (Tables 1-4 and text). Further, the EC50 in data set [2] came out at 550 ± 150 nM; in data set [5], 16800 ± 1250 nM. In data set [3], the CC50 was determined as 15700 ± 1340 nM. This molecule registered a Kd in data set [6] of 280 nM. Besides, the “VEEV (TC-83) CC50” value in data set [4] is above 20000 nM.

As to `COc1cc(-c2cnc3c(C#Cc4cccnc4)snc3c2)ccc1N` [Compound 3f, 2-Methoxy-4-(3-(pyridin-3-ylethynyl)isothiazolo[4,3-b]pyridin-6-yl)aniline], the 50% inhibitory concentration (IC50) turned out to be 2.8 nM in data set [1] (Table 5 column); 2.8 nM in data set [1] (Tables 1-4 and text). In addition, the values for the EC50 in data set [2] and in data set [5] were 2740 ± 40 nM and 260 ± 80 nM, respectively. In data set [3], the CC50 is above 20000 nM. Moreover, binding in data set [6] was put at a Kd of 44 nM. The “VEEV (TC-83) CC50” value in data set [4] is above 20000 nM.

Regarding `COc1ccc(-c2cnc3c(C#Cc4cncc(F)c4)snc3c2)cc1OC` [Compound 7r, 6-(3,4-Dimethoxyphenyl)-3-((5-fluoropyridin-3-yl)ethynyl)isothiazolo[4,3-b]pyridine], the IC50 in data set [1] (Table 5 column) was 98 nM; in data set [1] (Tables 1-4 and text), 98 nM. For the same molecule, the EC50 in data set [2] stood at 1920 ± 520 nM; in data set [5], 1850 ± 120 nM. Also, the CC50 in data set [3] is above 20000 nM. The molecule also registered a Kd in data set [6] of 110 nM. In data set [4], the “VEEV (TC-83) CC50” value was above 10000 nM.

Take `COc1cccc(C#Cc2snc3cc(-c4ccc(OC)c(OC)c4)cnc23)c1` [Compound 7f, 6-(3,4-Dimethoxyphenyl)-3-((3-methoxyphenyl)ethynyl)isothiazolo[4,3-b]pyridine]: the IC50 in data set [1] (Tables 1-4 and text) was found to be 21 nM. In addition, the CC50 in data set [3] is below 10000 nM. Also, in data set [4], the “VEEV (TC-83) CC50” value is above 10000 nM. Also, the EC50 in data set [5] came to 4790 ± 240 nM.

`C(#Cc1snc2cc(-c3ccc(OCCN4CCOCC4)cc3)cnc12)c1cccnc1` [Compound 5a, 4-(2-(4-(3-(Pyridin-3-ylethynyl)isothiazolo[4,3-b]pyridin-6-yl)phenoxy)ethyl)morpholine]: the IC50 in data set [1] (Tables 1-4 and text) worked out at 7.1 nM. Also, the EC50 in data set [2] is 5630 ± 970 nM; in data set [5], 310 ± 10 nM. In data set [3], the CC50 is above 20000 nM. Besides, the “VEEV (TC-83) CC50” value in data set [4] is above 10000 nM.

Turning to `COc1ccc(-c2cnc3c(C#Cc4cnc5ccccc5c4)snc3c2)cc1OC` [Compound 7w, 6-(3,4-Dimethoxyphenyl)-3-(quinolin-3-ylethynyl)isothiazolo[4,3-b]pyridine], the IC50 in data set [1] (Table 5 column) turned out to be 5690 nM; in data set [1] (Tables 1-4 and text), 5690 nM. Besides, in data set [1] (ratio of IC50 values), the “fold less potent on PIKfyve relative to RMC-113” value stood at 700 fold. Besides, the “SARS-CoV-2 screening, result in words” value in data set [2] (Vero E6/TMPRSS2 cells) is recorded as “only cytotoxicity was observed”. In addition, the CC50 in data set [3] was below 10000 nM. For the same molecule, in data set [6], the Kd was found to be 2000 nM. In data set [4], the “VEEV (TC-83) CC50” value is above 10000 nM. For the same molecule, in data set [5], the EC50 was found to be 2080 ± 100 nM.

In the case of `COc1ccc(-c2cnc3c(C#Cc4ccc(C#N)nc4)snc3c2)cc1OC` [Compound 7q, 5-((6-(3,4-Dimethoxyphenyl)isothiazolo[4,3-b]pyridin-3-yl)ethynyl)picolinonitrile], in data set [1] (Tables 1-4 and text), the IC50 was above 10000 nM. Moreover, the Kd in data set [6] is above 30000 nM.

Regarding `Fc1ccccc1-c1cnc2c(C#Cc3cccnc3)snc2c1` [Compound 3h, 6-(2-Fluorophenyl)-3-(pyridin-3-ylethynyl)isothiazolo[4,3-b]pyridine], the IC50 in data set [1] (Tables 1-4 and text) came to 8.8 nM. The values for the EC50 in data set [2] and in data set [5] were 1340 ± 500 nM and 6930 ± 130 nM, respectively. Also, in data set [3], the CC50 is above 20000 nM. In addition, the “VEEV (TC-83) CC50” value in data set [4] is above 20000 nM.

In the case of `COc1cc(-c2cnc3c(C#Cc4cccnc4)snc3c2)ccc1C(=O)O` [Compound 4, 2-Methoxy-4-(3-(pyridin-3-ylethynyl)isothiazolo[4,3-b]pyridin-6-yl)benzoic acid], the IC50 in data set [1] (Table 5 column) is 49 nM; in data set [1] (Tables 1-4 and text), 49 nM. Besides, the results for the EC50 in data set [2] and in data set [5] were 360 ± 190 nM and 8700 ± 1700 nM, respectively. Besides, in data set [3], the CC50 was above 20000 nM. This molecule also gave a Kd in data set [6] of 68 nM. The “VEEV (TC-83) CC50” value in data set [4] is above 10000 nM.

As for `Clc1cccc(-c2cnc3c(C#Cc4cccnc4)snc3c2)c1` [Compound 3i, 6-(3-Chlorophenyl)-3-(pyridin-3-ylethynyl)isothiazolo[4,3-b]pyridine], the IC50 was 21 nM in data set [1] (Table 5 column); 21 nM in data set [1] (Tables 1-4 and text). The Kd in data set [6] amounted to 180 nM.

On to `COCCOc1ccc(-c2cnc3c(C#Cc4cccnc4)snc3c2)cc1` [Compound 3j, 6-(4-(2-Methoxyethoxy)phenyl)-3-(pyridin-3-ylethynyl)isothiazolo[4,3-b]pyridine], for which the IC50 in data set [1] (Tables 1-4 and text) came out at 2.1 nM.

In the case of `Cc1ccccc1-c1cnc2c(C#Cc3cccnc3)snc2c1` [Compound 3c, 3-(Pyridin-3-ylethynyl)-6-(2-tolyl)isothiazolo[4,3-b]pyridine], the IC50 in data set [1] (Tables 1-4 and text) was 8.2 nM; in data set [1] (values given in text in nM), 8 nM.

As to `COCCNC(=O)c1cccc(-c2cnc3c(C#Cc4cccnc4)snc3c2)c1` [Compound 3s, N-(2-Methoxyethyl)-3-(3-(pyridin-3-ylethynyl)isothiazolo[4,3-b]pyridin-6-yl)benzamide], the IC50 was found to be 1.9 nM in data set [1] (Table 5 column); 1.9 nM in data set [1] (Tables 1-4 and text). The EC50 in data set [2] worked out at 5650 ± 1490 nM; in data set [5], 400 ± 80 nM. For the same molecule, the CC50 in data set [3] is above 20000 nM. Moreover, binding in data set [6] was characterised by a dissociation constant (Kd) of 30 nM. The “VEEV (TC-83) CC50” value in data set [4] is above 10000 nM.

Consider `CO/C(=C\c1snc2cc(-c3ccc(OC)c(OC)c3)cnc12)c1cccnc1` [Compound 23a, (Z)-6-(3,4-Dimethoxyphenyl)-3-(2-methoxy-2-(pyridin-3-yl)vinyl)isothiazolo[4,3-b]pyridine], for which, in data set [1] (Tables 1-4 and text), the IC50 worked out at 525 nM.

In the case of `COc1ccc(-c2cnc3c(/C=C(/c4cccnc4)N4CCOCC4)snc3c2)cc1OC` [Compound 23c, (Z)-4-(2-(6-(3,4-Dimethoxyphenyl)isothiazolo[4,3-b]pyridin-3-yl)-1-(pyridin-3-yl)vinyl)morpholine], the IC50 in data set [1] (Tables 1-4 and text) is 613 nM.

On to `COc1ccc(-c2cnc3c(NCc4cccnc4)snc3c2)cc1OC` [Compound 15, 6-(3,4-Dimethoxyphenyl)-N-(pyridin-3-ylmethyl)isothiazolo[4,3-b]pyridin-3-amine], for which the “PIKfyve inhibition in words” value in data set [1] was “practically inactive”. The IC50 in data set [1] (Tables 1-4 and text) is above 10000 nM.

Regarding `COc1ccc(-c2cnc3c(C#CCNS(=O)(=O)c4ccccc4)snc3c2)cc1OC` [Compound 11b, N-(3-(6-(3,4-Dimethoxyphenyl)isothiazolo[4,3-b]pyridin-3-yl)prop-2-yn-1-yl)benzenesulfonamide], in data set [1] (Tables 1-4 and text), the IC50 was 1840 nM.

On to `COc1ccc(-c2cnc3c(C#CCNC(=O)c4ccccc4)snc3c2)cc1OC` [Compound 11a, N-(3-(6-(3,4-Dimethoxyphenyl)isothiazolo[4,3-b]pyridin-3-yl)prop-2-yn-1-yl)benzamide], for which the IC50 in data set [1] (Tables 1-4 and text) stood at 2040 nM.

For the origin of these results see publication PMC12472322, “Structure–Activity Relationship Study of 3-Alkynyl-6-aryl-isothiazolo[4,3-b]pyridines as Dual Inhibitors of the Lipid Kinases PIKfyve and PIP4K2C” (Pharmaceuticals, 2025).
